Assay [1] deals with IDH1-R132H recombinant protein (Homo sapiens, UniProt O75874, R132H). Kind of assay: IDH1-R132H enzymatic assay (NADPH consumption, diaphorase/resazurin readout). To be noted: read-out: Enzyme IDH1 R132H IC50 Range. The assay is classed as biochemical. An outline of the steps: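 Compound was preincubated 15 min at 25 °C with recombinant IDH1-R132H (30 nM) or IDH1-R132C (10 nM) enzyme solution in 50 mM Tris pH 7.5, 150 mM NaCl, 5 mM MgCl2, 0.1% BSA and 0.01% Triton X-100. A solution of 2 mM α-ketoglutarate and 20 μM NADPH was then added for 45 min at 25 °C. Remaining NADPH was read by diaphorase/resazurin, and IC50 came from a four-parameter logistic fit of NADPH-consumption inhibition.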
In general terms: Alamar Blue is a resazurin reagent that responds to reducing activity.

Assay [2] concerns the target IDH1-R132C recombinant protein (Homo sapiens, UniProt O75874, R132C). Nature of the assay: IDH1-R132C enzymatic assay (NADPH consumption, diaphorase/resazurin readout). It is filed as biochemical. Particulars: read-out: Enzyme IDH1 R132C IC50 Range. The protocol:
Assays were performed in a 384-well black plate. An aliquot of 250 nL of compound was incubated with 10 μL of 30 nM IDH1-R132H or 10 nM IDH1-R132C recombinant protein in assay buffer (50 mM Tris pH=7.5, 150 mM NaCl, 5 mM MgCl2, 0.1% (w/v) Bovine Serum Albumin, and 0.01% Triton X-100) in each well at 25° C. for 15 minutes. After the plate was centrifuged briefly, an aliquot of 10 μL of 2 mM α-ketoglutarate and 20 μM NADPH solution prepared in assay buffer was then added to each well and the reaction was maintained at 25° C. for 45 minutes. An aliquot of 10 μL of diaphorase solution (0.15 U/mL diaphorase and 30 μM Resazurin in assay buffer) was added to each well. […] The IC50 of a given compound was calculated by fitting the dose response curve of inhibition of NADPH consumption at a given concentration with the four parameter logistic equation.

Bounds are passed on as bounds.

IDH1-R132C recombinant protein, sequence (O75874 whole entry R132C): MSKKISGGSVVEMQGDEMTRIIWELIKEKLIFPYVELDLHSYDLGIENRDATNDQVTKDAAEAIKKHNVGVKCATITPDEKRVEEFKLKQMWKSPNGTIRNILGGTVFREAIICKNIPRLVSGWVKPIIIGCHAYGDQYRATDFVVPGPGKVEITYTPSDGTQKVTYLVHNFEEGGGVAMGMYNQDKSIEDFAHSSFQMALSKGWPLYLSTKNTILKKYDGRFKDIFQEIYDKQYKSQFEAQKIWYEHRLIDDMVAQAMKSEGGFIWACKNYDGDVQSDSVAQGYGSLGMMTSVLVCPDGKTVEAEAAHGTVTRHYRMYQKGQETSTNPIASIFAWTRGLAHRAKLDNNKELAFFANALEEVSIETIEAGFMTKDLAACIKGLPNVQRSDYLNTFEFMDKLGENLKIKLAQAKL
IDH1-R132H recombinant protein, sequence (O75874 whole entry R132H): as the sequence (O75874 whole entry R132C) above, with C132H counted along it

For `COc1cc(NCc2cc3cc(Cl)c(OCCN4CCCC4=O)cc3[nH]c2=O)ccc1C#N` [Compound I-86, 4-[({6-chloro-2-oxo-7-[2-(2-oxopyrrolidin-1-yl)ethoxy]-1,2-dihydroquinolin-3-yl}methyl)amino]-2-methoxybenzonitrile], the results for the IC50 in assay [1] and in assay [2] were 10 to 100 nM and over 1000 nM, respectively.
For `COc1cc(NC(C)c2cc3cc(Cl)ccc3[nH]c2=O)ccc1C#N` (racemic) [Compound I-1, 4-{[1-(6-chloro-2-oxo-1,2-dihydroquinolin-3-yl)ethyl]amino}-2-methoxybenzonitrile], in that order: 10 to 100 nM and 10 to 100 nM.
For `COc1cc(NCc2cc3cc(Cl)c(OCCn4ccnc4C)cc3[nH]c2=O)ccc1C#N` [Compound I-90, 4-[({6-chloro-7-[2-(2-methyl-1H-imidazol-1-yl)ethoxy]-2-oxo-1,2-dihydroquinolin-3-yl}methyl)amino]-2-methoxybenzonitrile] the same measures were 10 to 100 nM and 100 to 1000 nM.
For `COc1cc(NCc2cc3cc(Cl)ccc3[nH]c2=O)ccc1-n1cnnn1` [Compound I-33, 6-chloro-3-({[3-methoxy-4-(1H-1,2,3,4-tetrazol-1-yl)phenyl]amino}methyl)-1,2-dihydroquinolin-2-one], in that order: 100 to 1000 nM and over 1000 nM.
`COc1cc(NCc2cc3cc(Cl)c(OCCN4CCN(C)CC4)cc3[nH]c2=O)ccc1C#N` [Compound I-88, 4-[({6-chloro-7-[2-(4-methylpiperazin-1-yl)ethoxy]-2-oxo-1,2-dihydroquinolin-3-yl}methyl)amino]-2-methoxybenzonitrile]: the IC50 (usually the concentration that inhibits the measured activity by half) in assay [1] was 10 to 100 nM; in assay [2], over 1000 nM.
For `COc1cc(NCc2cc3cc(Cl)c(OC[C@H]4CCOC4)cc3[nH]c2=O)ccc1C#N` [Compound I-65, 4-[({6-chloro-2-oxo-7-[(3S)-oxolan-3-ylmethoxy]-1,2-dihydroquinolin-3-yl}methyl)amino]-2-methoxybenzonitrile] the same measures were 10 to 100 nM and over 1000 nM.
`COc1cc(NCc2cc3cc(Cl)c(OCCn4ccnc4)cc3[nH]c2=O)ccc1C#N` [Compound I-89, 4-[({6-chloro-7-[2-(1H-imidazol-1-yl)ethoxy]-2-oxo-1,2-dihydroquinolin-3-yl}methyl)amino]-2-methoxybenzonitrile]: the concentration for half-maximal inhibition (IC50) was 10 to 100 nM in assay [1] and over 1000 nM in assay [2].
For `COc1cc(NCc2cc3cc(Cl)c(OCC(=O)N4CCOCC4)cc3[nH]c2=O)ccc1C#N` [Compound I-69, 4-[({6-chloro-7-[2-(morpholin-4-yl)-2-oxoethoxy]-2-oxo-1,2-dihydroquinolin-3-yl}methyl)amino]-2-methoxybenzonitrile], in that order: 10 to 100 nM and over 1000 nM.
For `COc1cc(NCc2cc3cc(Cl)c(OCCN4CCCCC4)cc3[nH]c2=O)ccc1C#N` [Compound I-87, 4-[({6-chloro-2-oxo-7-[2-(piperidin-1-yl)ethoxy]-1,2-dihydroquinolin-3-yl}methyl)amino]-2-methoxybenzonitrile], in that order: 10 to 100 nM and over 1000 nM.
For `COc1cc(NCc2cc3cc(Cl)c(OCc4cncn4C)cc3[nH]c2=O)ccc1C#N` [Compound I-77, 4-[({6-chloro-7-[(1-methyl-1H-imidazol-5-yl)methoxy]-2-oxo-1,2-dihydroquinolin-3-yl}methyl)amino]-2-methoxybenzonitrile] the same measures were 10 to 100 nM and 100 to 1000 nM.
As for `COc1cc(NCc2cc3cc(Cl)c(OCC(O)CN4CCOCC4)cc3[nH]c2=O)ccc1C#N` (stereo not shown) [Compound I-59, 4-[({6-chloro-7-[2-hydroxy-3-(morpholin-4-yl)propoxy]-2-oxo-1,2-dihydroquinolin-3-yl}methyl)amino]-2-methoxybenzonitrile], the IC50 in assay [1] was 100 to 1000 nM; in assay [2] it was over 1000 nM.
